In PubChem BioAssay AID264 (DTP/NCI, 2004):
Several values for one entry are separate records, joined by “and”; a condition that tells them apart may be missing. Identical values can stand only once. Results filed as inconclusive are left out.

Test system: nude mice, LX-1 lung xenograft intrarenal, tumor weight T/C
Experiment: NCI In Vivo Anticancer Drug Screen. Data for tumor model Human Lung LX-1 Xenograft (intrarenal inoculation) in NU/NU Swiss (nude) mice
Conditions: endpoint: mean tumor weight change, higher = larger tumour
Outline: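 Readout: T/C, i.e. treated-group tumor measurement over vehicle-control measurement. Mice bearing transplantable tumors were dosed with compound or vehicle.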

[1] = dose: 75.0 mg/kg/injection, schedule: Q04DX003 (sc), vehicle: saline with Tween-80
[2] = dose: 150.0 mg/kg/injection, schedule: Q04DX003 (sc), vehicle: saline with Tween-80
[3] = dose: 300.0 mg/kg/injection, schedule: Q04DX003 (sc), vehicle: saline with Tween-80
[4] = dose: 150.0 mg/kg/injection, schedule: Q04DX003 (sc), vehicle: Klucel (hydroxypropylcellulose) (HPC)
[5] = dose: 25.0 mg/kg/injection, schedule: Q04DX003 (sc), vehicle: saline with Tween-80
[6] = dose: 50.0 mg/kg/injection, schedule: Q04DX003 (sc), vehicle: saline with Tween-80
[7] = dose: 100.0 mg/kg/injection, schedule: Q04DX003 (sc), vehicle: saline with Tween-80

With C=C1C(C)C2C(Cc3ccccc3)NC(=O)C23C(OC(C)=O)/C=C/C(C)(O)CC(C)C/C=C/C3C1O (stereo unspecified) as the molecule, how does the T/C (dose: 6.25 mg/kg/injection, schedule: Q04DX003 (sc), vehicle: Klucel (hydroxypropylcellulose) (HPC)) read?
Its T/C is 112 % of control.

What about the T/C (dose: 12.5 mg/kg/injection, schedule: Q04DX003 (sc), vehicle: Klucel (hydroxypropylcellulose) (HPC)) of the same molecule?
The T/C was 112 % of control.

Which results are given for Cc1cc(=O)n2c3c(c4c(cc13)c(CN(C)C)cc(=O)n4C)OC2?
T/C [1]: 59 % of control; T/C [2]: 89 % of control; T/C [3]: 55 % of control

For CCOC(=O)c1[nH]c2cccc3c2c1CC(Br)C3=O (stereo unspecified), which T/C [3] is on record?
Its T/C is 87 % of control.

And the T/C (dose: 600.0 mg/kg/injection, schedule: Q04DX003 (sc), vehicle: saline with Tween-80)?
The T/C was 88 % of control.

What about the T/C (dose: 1200.0 mg/kg/injection, schedule: Q04DX003 (sc), vehicle: saline with Tween-80) of the same molecule?
Its T/C is 84 % of control.

What about the T/C (dose: 2400.0 mg/kg/injection, schedule: Q04DX003 (sc), vehicle: saline with Tween-80) of the same molecule?
Its T/C is 67 % of control.

CC(C)CCCCCCCCCCCCC(=O)NCC(=O)NC1C(O)C(O)C(Nc2ncnc3nc[nH]c23)OC1C(O)CO (stereo unspecified) was tested. Which T/C (dose: 0.4 mg/kg/injection, schedule: Q01DX010 (sc), vehicle: saline) did it give?
Its T/C is 84 % of control.

And the T/C (dose: 0.8 mg/kg/injection, schedule: Q01DX010 (sc), vehicle: saline)?
The T/C was 62 % of control.

What about the T/C (dose: 1.6 mg/kg/injection, schedule: Q01DX010 (sc), vehicle: saline) of the same molecule?
Its T/C is 48 % of control.

What does the source list for [Cl][Mn][Cl]?
T/C (dose: 75.0 mg/kg/injection, schedule: Q04DX003 (sc), vehicle: saline): 68 % of control; T/C (dose: 150.0 mg/kg/injection, schedule: Q04DX003 (sc), vehicle: saline): 50 % of control

Which results are given for C1CN(P2(N3CC3)=NP(N3CC3)(N3CC3)=NP(N3CC3)(N3CC3)=N2)CCO1 (stereo unspecified)?
T/C (dose: 6.25 mg/kg/injection, schedule: Q01DX010 (sc), vehicle: saline): 107 % of control; T/C (dose: 12.5 mg/kg/injection, schedule: Q01DX010 (sc), vehicle: saline): 38 % of control and 43 % of control and 53 % of control; T/C (dose: 25.0 mg/kg/injection, schedule: Q01DX010 (sc), vehicle: saline): 28 % of control and 29 % of control and 31 % of control; T/C (dose: 25.0 mg/kg/injection, schedule: Q04DX003 (sc), vehicle: saline): 74 % of control and 82 % of control; T/C (dose: 50.0 mg/kg/injection, schedule: Q01DX010 (sc), vehicle: saline): 6 % of control and 8 % of control; T/C (dose: 50.0 mg/kg/injection, schedule: Q04DX003 (sc), vehicle: saline): 23 % of control and 35 % of control; T/C (dose: 100.0 mg/kg/injection, schedule: Q04DX003 (sc), vehicle: saline): 25 % of control

Which results are given for CO[C@@]12[C@H](COC(N)=O)C3=C(C(=O)C(C)=C(N)C3=O)N1C[C@@H]1N[C@@H]12?
T/C (dose: 0.63 mg/kg/injection, schedule: Q04DX003 (sc), vehicle: saline): 98 % of control; T/C (dose: 1.25 mg/kg/injection, schedule: Q04DX003 (sc), vehicle: saline): 32 % of control and 40 % of control and 42 % of control; T/C (dose: 1.5 mg/kg/injection, schedule: Q04DX003 (sc), vehicle: saline): 42 % of control; T/C (dose: 3.0 mg/kg/injection, schedule: Q04DX003 (sc), vehicle: saline): 14 % of control and 16 % of control (2×); T/C (dose: 3.0 mg/kg/injection, schedule: Q04DX003 (sc), vehicle: suspension in saline): 3 % of control; T/C (dose: 6.0 mg/kg/injection, schedule: Q04DX003 (sc), vehicle: suspension in saline): -55 % of control; T/C (dose: 12.0 mg/kg/injection, schedule: Q04DX003 (sc), vehicle: saline): -76 % of control

Which results are given for Nc1ncnc2c1nnn2C1OC(CO)C(O)C1O (stereo unspecified)?
T/C (dose: 18.75 mg/kg/injection, schedule: Q04DX003 (sc), vehicle: Klucel (hydroxypropylcellulose) (HPC)): 102 % of control; T/C (dose: 37.5 mg/kg/injection, schedule: Q04DX003 (sc), vehicle: Klucel (hydroxypropylcellulose) (HPC)): 96 % of control; T/C (dose: 75.0 mg/kg/injection, schedule: Q04DX003 (sc), vehicle: Klucel (hydroxypropylcellulose) (HPC)): 103 % of control; T/C [4]: 80 % of control

For CCN(CC)CCC(=O)c1ccccc1, which T/C [2] is on record?
The T/C was 81 % of control.

For CSc1ccc2c(c1)C(N1CCN(C)CC1)Cc1ccccc1S2 (stereo unspecified), which T/C [5] is on record?
Its T/C is 152 % of control.

What about the T/C [6] of the same molecule?
The T/C was 88 % of control.

What about the T/C [7] of the same molecule?
The T/C was 171 % of control.

Which results are given for CSC1SCC2C(=O)N(C)C(C(C)C)C(=O)OCC(NC(=O)c3cnc4ccccc4n3)C(=O)NC(C)C(=O)N(C)C1C(=O)N(C)C(C(C)C)C(=O)OCC(NC(=O)c1cnc3ccccc3n1)C(=O)NC(C)C(=O)N2C (stereo unspecified)?
T/C (dose: 15.0 micrograms/kg/injection, schedule: Q01DX010 (sc), vehicle: saline): 97 % of control; T/C (dose: 30.0 micrograms/kg/injection, schedule: Q01DX010 (sc), vehicle: saline): 71 % of control; T/C (dose: 60.0 micrograms/kg/injection, schedule: Q01DX010 (sc), vehicle: saline): 48 % of control; T/C (dose: 120.0 micrograms/kg/injection, schedule: Q01DX010 (sc), vehicle: saline): 36 % of control; T/C (dose: 240.0 micrograms/kg/injection, schedule: Q01DX010 (sc), vehicle: saline): 65 % of control

For COc1cc(C(=O)c2cc3c(cc2C)OCO3)cc(OC)c1OC, which T/C [4] is on record?
The T/C was 78 % of control.

And the T/C (dose: 300.0 mg/kg/injection, schedule: Q04DX003 (sc), vehicle: Klucel (hydroxypropylcellulose) (HPC))?
Its T/C is 71 % of control.

And the T/C (dose: 600.0 mg/kg/injection, schedule: Q04DX003 (sc), vehicle: Klucel (hydroxypropylcellulose) (HPC))?
Its T/C is 80 % of control.

What about the T/C (dose: 1200.0 mg/kg/injection, schedule: Q04DX003 (sc), vehicle: Klucel (hydroxypropylcellulose) (HPC)) of the same molecule?
The T/C was 82 % of control.

For Clc1cc(Cl)c(C[N+]23CN4CN(CN(C4)C2)C3)cc1Cl, which T/C (dose: 18.75 mg/kg/injection, schedule: Q04DX003 (sc), vehicle: saline with Tween-80) is on record?
The T/C was 76 % of control.

What about the T/C (dose: 37.5 mg/kg/injection, schedule: Q04DX003 (sc), vehicle: saline with Tween-80) of the same molecule?
The T/C was 96 % of control.

What about the T/C [1] of the same molecule?
The T/C was 91 % of control.

And the T/C [2]?
The T/C was 107 % of control.

With O=C(CCCN1CCC(O)(c2cccc(C(F)(F)F)c2)CC1)c1ccc(F)cc1 as the molecule, how does the T/C (dose: 6.25 mg/kg/injection, schedule: Q01DX010 (sc), vehicle: Klucel (hydroxypropylcellulose) (HPC)) read?
Its T/C is 52 % of control.

And the T/C (dose: 12.5 mg/kg/injection, schedule: Q01DX010 (sc), vehicle: Klucel (hydroxypropylcellulose) (HPC))?
The T/C was 96 % of control.

And the T/C (dose: 25.0 mg/kg/injection, schedule: Q01DX010 (sc), vehicle: Klucel (hydroxypropylcellulose) (HPC))?
The T/C was 60 % of control.

What about the T/C (dose: 50.0 mg/kg/injection, schedule: Q01DX010 (sc), vehicle: Klucel (hydroxypropylcellulose) (HPC)) of the same molecule?
Its T/C is 45 % of control and 54 % of control.

For c1ccc2c(NCCCCCCNc3c4ccccc4nc4ccccc34)c3ccccc3nc2c1, which T/C (dose: 5.0 mg/kg/injection, schedule: Q01DX010 (sc), vehicle: Klucel (hydroxypropylcellulose) (HPC)) is on record?
Its T/C is 102 % of control.

Which T/C [7] does the source give for COc1cc(C(C)(C)C)cc(OC)c1C(O)(c1c(OC)cc(C(C)(C)C)cc1OC)c1c(OC)cc(C(C)(C)C)cc1OC here?
The T/C was 91 % of control.

And the T/C (dose: 200.0 mg/kg/injection, schedule: Q04DX003 (sc), vehicle: saline with Tween-80)?
The T/C was 68 % of control.

And the T/C (dose: 400.0 mg/kg/injection, schedule: Q04DX003 (sc), vehicle: saline with Tween-80)?
Its T/C is 98 % of control.

And the T/C (dose: 800.0 mg/kg/injection, schedule: Q04DX003 (sc), vehicle: saline with Tween-80)?
The T/C was 86 % of control.

What does the source list for CCN(CC)CC[n+]1ccc2c(C)c3[nH]c4ccc(O)cc4c3c(C)c2c1?
T/C (dose: 25.0 mg/kg/injection, schedule: Q04DX003 (sc), vehicle: suspension in saline): 172 % of control; T/C (dose: 50.0 mg/kg/injection, schedule: Q04DX003 (sc), vehicle: suspension in saline): 111 % of control

For COc1cccc2c1C(=O)c1c(O)c3c(c(O)c1C2=O)CC(O)(/C(C)=N/NC(=O)CCCCC(=O)N/N=C(\C)C1(O)Cc2c(O)c4c(c(O)c2C(OC2CC(N)C(O)C(C)O2)C1)C(=O)c1c(OC)cccc1C4=O)CC3OC1CC(N)C(O)C(C)O1 (stereo unspecified), which T/C (dose: 12.5 mg/kg/injection, schedule: Q04DX003 (sc), vehicle: water) is on record?
Its T/C is 28 % of control.

What about the T/C (dose: 100.0 mg/kg/injection, schedule: Q04DX003 (sc), vehicle: water) of the same molecule?
Its T/C is 19 % of control.

What does the source list for C[n+]1cccc(NC(=O)c2ccc(NC(=O)C34CCC(C(=O)Nc5ccc(C(=O)Nc6ccc[n+](C)c6)cc5)(CC3)CC4)cc2)c1?
T/C (dose: 12.5 mg/kg/injection, schedule: Q04DX003 (sc), vehicle: saline with Tween-80): 103 % of control; T/C [5]: 76 % of control; T/C [6]: 53 % of control

Which results are given for COc1cc2cc3cc4cc(OC)c(OC)cc4c(C)[n+]3cc2cc1OC (tested in a mixture with another compound)?
T/C (dose: 300.0 mg/kg/injection, schedule: Q04DX003 (sc), vehicle: suspension in saline): 105 % of control; T/C (dose: 600.0 mg/kg/injection, schedule: Q04DX003 (sc), vehicle: suspension in saline): 71 % of control; T/C (dose: 1200.0 mg/kg/injection, schedule: Q04DX003 (sc), vehicle: suspension in saline): 71 % of control; T/C (dose: 2400.0 mg/kg/injection, schedule: Q04DX003 (sc), vehicle: suspension in saline): 53 % of control

CSc1cc(C)[o+]c(C)c1 was tested. Which T/C (dose: 100.0 mg/kg/injection, schedule: Q04DX003 (sc), vehicle: Klucel (hydroxypropylcellulose) (HPC)) did it give?
Its T/C is 87 % of control.

What about the T/C (dose: 200.0 mg/kg/injection, schedule: Q04DX003 (sc), vehicle: Klucel (hydroxypropylcellulose) (HPC)) of the same molecule?
Its T/C is 76 % of control.
